Assay results reported in patent US20260234150A1, “COMPOUND FOR INHIBITING NLRP3, PREPARATION METHOD, AND USE” (DOVETREE MEDICINES UNUS, INC., priority 2023, published 2026).

Target: T1, His6-Flag-TEV-NLRP3 (134-1036) (Homo sapiens, UniProt Q96P20)
T1 construct: fused on or other part: N-terminal His6 tag, Flag tag and TEV cleavage site
Experiment: NLRP3 fluorescence polarization (FP) binding assay, competition with probe NP3-301
Conditions: competition with NP3-301 for binding to NLRP3 (134-1036), 30 nM protein
Method: This experiment uses fluorescence polarization technology to detect and evaluate the binding assay.
The fluorescent probe used in this assay is the compound NP3-301 in the Journal of Molecular Biology (2021) 433, 167309, which was synthesized with reference to this literature.
His6-Flag-TEV-NLRP3 (134-1036) protein (SEQ NO. 1) was purchased from Kaihuiruizhi Biotech (Shanghai) Co., Ltd. (ChemPartner), and was customed for expression.
Prepare 1× assay buffer: 50 mM Hepes, pH 7.4, 150 mM NaCl, 2.5 mM MgCl2, 0.005% Tween-20, 1 mM TCEP, 100 μM ATP.
First, 2.5 μL of 4× compound solution was added to a black shallow 384-well plate (Greiner, 784076), the shallow well plate was sealed, and centrifuged at 1000 rpm for 1 min; then 2× NLPR3 protein solution (final concentration of 30 nM) was added, the shallow well plate was sealed, centrifuged at 1000 rpm for 1 min, and incubated at room temperature for 60 min. Finally, 2.5 μL of 4× NP3-301 (final concentration of 0.5 nM) was added, the shallow well plate was sealed, centrifuged at 1000 rpm for 1 min, and incubated at room temperature for 30 min. Envision was used to read the fluorescence polarization values of λex=485+20 nm and kem=535+25 nm. GraphPad Prism 9.5.0 was used to analyze the data, and the IC50 value of the competition between the compound and NP3-301 for binding to His6-Flag-TEV-NLRP3 (134-1036) was fitted by four-parameter logistic. The compounds of the present disclosure have good NLRP3 binding activity, and the test results of some representative compounds are shown in Table 1.

T1 sequence (Q96P20 134-1036 limits assumed): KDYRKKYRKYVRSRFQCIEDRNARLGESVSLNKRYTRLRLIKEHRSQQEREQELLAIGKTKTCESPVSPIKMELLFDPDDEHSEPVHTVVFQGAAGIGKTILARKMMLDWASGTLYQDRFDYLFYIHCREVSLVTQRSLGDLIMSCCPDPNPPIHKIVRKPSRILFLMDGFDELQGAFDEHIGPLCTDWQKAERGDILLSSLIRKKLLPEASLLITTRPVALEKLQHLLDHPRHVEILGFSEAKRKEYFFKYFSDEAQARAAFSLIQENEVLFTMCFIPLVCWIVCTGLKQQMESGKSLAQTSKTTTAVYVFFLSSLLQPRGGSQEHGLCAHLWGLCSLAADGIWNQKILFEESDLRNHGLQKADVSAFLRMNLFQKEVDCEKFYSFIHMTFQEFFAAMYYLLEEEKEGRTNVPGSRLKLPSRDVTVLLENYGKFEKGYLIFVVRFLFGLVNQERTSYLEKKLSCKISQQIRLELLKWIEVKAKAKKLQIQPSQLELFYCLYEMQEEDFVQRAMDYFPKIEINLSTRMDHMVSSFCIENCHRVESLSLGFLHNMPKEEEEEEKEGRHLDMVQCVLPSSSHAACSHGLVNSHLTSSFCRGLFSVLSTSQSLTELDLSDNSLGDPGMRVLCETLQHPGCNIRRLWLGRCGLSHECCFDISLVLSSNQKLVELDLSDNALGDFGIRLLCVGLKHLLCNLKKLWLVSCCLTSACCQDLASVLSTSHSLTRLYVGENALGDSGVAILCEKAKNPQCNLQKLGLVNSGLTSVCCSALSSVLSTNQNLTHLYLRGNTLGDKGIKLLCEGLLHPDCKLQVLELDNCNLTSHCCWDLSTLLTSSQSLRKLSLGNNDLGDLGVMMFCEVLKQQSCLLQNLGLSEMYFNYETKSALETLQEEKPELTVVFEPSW

| Compound | IC50 |
| --- | --- |
| Cc1cc(C(F)(F)F)cc(O)c1-c1cc2ccn(Cc3cc(C#N)ccn3)c2nn1 [Compound 121] | > 1000 nM |
| Cc1cc(C(F)(F)F)cc(O)c1-c1ccc2nc(N[C@@H]3CCCN(CCO)C3)nn2n1 [Compound 454] | ≤ 100 nM |
| Cc1cc(C(F)(F)F)cc(O)c1-c1ccc2oc(C3CCCNC3)nc2n1 (centres unmarked) [Compound 382] | 100 to 500 nM |
| Cc1cc(C(F)(F)F)cc(O)c1-c1ccc2oc(N3CCO[C@@H](C)C3)nc2n1 [Compound 372] | ≤ 100 nM |
| CC(=O)N1CCOC2(CCN(c3nc4nc(-c5c(C)cc(C(F)(F)F)cc5O)ccc4o3)CC2)C1 [Compound 369] | 100 to 500 nM |
| Cc1cc(C(F)(F)F)cc(O)c1-c1ccc2oc(N[C@@H]3CCCN(CC(C)(C)O)C3)nc2n1 [Compound 403] | ≤ 100 nM |
| Cc1cc(-c2ccc(C(F)(F)F)cc2O)nc2nc(N3CCOCC3)nn12 [Compound 458] | ≤ 100 nM |
| CC(=O)N1CC2(CCN(c3nc4nc(-c5c(C)cc(C(F)(F)F)cc5O)ccc4o3)CC2)C1 [Compound 359] | ≤ 100 nM |
| CCS(=O)(=O)N1CCOC[C@H]1CNc1nc2nc(-c3c(C)cc(C(F)(F)F)cc3O)ccc2o1 [Compound 259] | ≤ 100 nM |
| Cc1cc(C(F)(F)F)cc(O)c1-c1ccc2oc(N3C[C@H]4C[C@@H]3CO4)nc2n1 [Compound 379] | 100 to 500 nM |
| Cc1cc(C)c(-c2ccc3oc(N4CCOCC4)nc3n2)c(O)c1 [Compound 375] | ≤ 100 nM |
| CC(=O)N1CC[C@@H](CNc2nc3nc(-c4c(C)cc(C(F)(F)F)cc4O)ccc3o2)C1 [Compound 271] | 100 to 500 nM |
| Cc1cc(Cl)cc(O)c1-c1ccc2nc(N3CCOCC3)nn2n1 [Compound 420] | ≤ 100 nM |
| Cc1cc(C(F)(F)F)cc(O)c1-c1ccc2oc(N3CCS(=O)(=O)c4ccccc43)nc2n1 [Compound 386] | ≤ 100 nM |
| Cc1cc(C(F)(F)F)cc(O)c1-c1ccc2oc(N[C@@H]3CCCN(C(=O)C4CC4)C3)nc2n1 [Compound 405] | ≤ 100 nM |
| Cc1cc(C)c(-c2ccc3oc(N4CCS(=O)(=O)CC4)nc3n2)c(O)c1 [Compound 385] | 100 to 500 nM |
| CC(=O)N1CCCC2(CCN(c3nc4nc(-c5c(C)cc(C(F)(F)F)cc5O)ccc4o3)CC2)C1 [Compound 370] | 500 to 1000 nM |
| CC(=O)N1CCOC[C@H]1CNc1nc2c(C)cc(-c3c(C)cc(C(F)(F)F)cc3O)nn2n1 [Compound 425] | 100 to 500 nM |
| CC(=O)N1C[C@@H]2CN(c3nc4nc(-c5c(C)cc(C(F)(F)F)cc5O)ccc4o3)C[C@@H]2C1 [Compound 360] | ≤ 100 nM |
| CC(=O)N1CCC[C@@H](Nc2nc3nc(-c4c(C)cc(C(F)(F)F)cc4O)ccc3o2)C1 [Compound 407] | ≤ 100 nM |
| Cc1cc(C(F)(F)F)cc(O)c1-c1ccc2oc(N3CCCOCC3)nc2n1 [Compound 377] | ≤ 100 nM |
| Cc1cc(C(F)(F)F)cc(O)c1-c1ccc2oc(N3CCC4(CCO4)CC3)nc2n1 [Compound 363] | ≤ 100 nM |
| COc1cc(C)c(-c2ccc3oc(NC[C@@H]4COCCN4C(C)=O)nc3n2)c(O)c1 [Compound 255] | 500 to 1000 nM |

| Compound | IC50 |
| --- | --- |
| Cc1cc(C(F)(F)F)cc(O)c1-c1ccc2cc(N3CCOC[C@H]3C)nn2n1 [Compound 438] | ≤ 100 nM |
| Cc1cc(C(F)(F)F)cc(O)c1-c1ccc2[nH]c(N)nc2n1 [Compound 1] | 100 to 500 nM |
| Cc1cc(C(F)(F)F)cc(O)c1-c1ccc2oc(NC[C@@H]3COCCN3S(C)(=O)=O)nc2n1 [Compound 258] | ≤ 100 nM |
| CCS(=O)(=O)N1CCN(c2nc3nc(-c4c(C)cc(C(F)(F)F)cc4O)ccc3o2)[C@@H](C)C1 [Compound 393] | 100 to 500 nM |
| CC(=O)N1CCC2(CCN(c3nc4nc(-c5c(C)cc(C(F)(F)F)cc5O)ccc4o3)C2)C1 (centres unmarked) [Compound 364] | ≤ 100 nM |
| CC(=O)N1CC[C@H](Nc2nc3nc(-c4c(C)cc(C(F)(F)F)cc4O)ccc3o2)C1 [Compound 273] | 100 to 500 nM |
| CC(=O)N1CCOC[C@H]1CNc1nc2nc(-c3c(C)cc(Cl)cc3O)cc(C)c2o1 [Compound 452] | ≤ 100 nM |
| Cc1cc(C(F)(F)F)cc(O)c1-c1ccc2oc(N3C[C@@H]4C[C@H]3CO4)nc2n1 [Compound 380] | 100 to 500 nM |
| Cc1cc(C(F)(F)F)cc(O)c1-c1ccc2oc(N3CCN(C)C3=O)nc2n1 [Compound 396] | ≤ 100 nM |
| Cc1cc(C(F)(F)F)cc(O)c1-c1ccc2oc(N[C@@H]3CCCN(S(=O)(=O)C4CC4)C3)nc2n1 [Compound 406] | ≤ 100 nM |
| CC(=O)N1CCC2(CC1)CCN(c1nc3nc(-c4c(C)cc(C(F)(F)F)cc4O)ccc3o1)CC2 [Compound 366] | 100 to 500 nM |
| Cc1cc(C(F)(F)F)cc(O)c1-c1ccc2oc(N[C@@H]3CCCN(C4COC4)C3)nc2n1 [Compound 401] | ≤ 100 nM |
| CC(=O)N1C[C@@H](O)[C@H](Nc2nc3nc(-c4c(C)cc(C(F)(F)F)cc4O)ccc3o2)C1 [Compound 272] | ≤ 100 nM |
| CC(=O)N1CCOC[C@H]1CNc1nc2ccc(-c3c(C)cc(C(F)(F)F)cc3O)nn2n1 [Compound 419] | 100 to 500 nM |
| Cc1cc(C(F)(F)F)cc(O)c1-c1ccc2oc(NC3CCN(S(C)(=O)=O)CC3)nc2n1 [Compound 411] | 100 to 500 nM |
| CC(=O)N1CCOC[C@H]1CNc1nc2nc(-c3c(C)cc(C)cc3O)ccc2o1 [Compound 254] | 100 to 500 nM |
| Cc1cc(C(F)(F)F)cc(O)c1-c1ccc2oc(N[C@@H]3CCCN(S(C)(=O)=O)C3)nc2n1 [Compound 408] | ≤ 100 nM |
| CCN1CCC[C@H](n2ccc3cc(-c4c(C)cc(C(F)(F)F)cc4O)nnc32)C1 [Compound 11-b] | 100 to 500 nM |
| Cc1cc(C(F)(F)F)cc(O)c1-c1ccc2oc(N3CC4(COC4)C3)nc2n1 [Compound 357] | 100 to 500 nM |
| Cc1cc(C(F)(F)F)cc(O)c1-c1cc2ccn(C3CS(=O)(=O)C3)c2nn1 [Compound 125] | 100 to 500 nM |
| CC(=O)N1CCOC[C@H]1CNc1nc2nc(-c3c(C)cc(C(F)(F)F)cc3O)cc(C)n2n1 [Compound 457] | 100 to 500 nM |
| Cc1cc(C(F)(F)F)cc(O)c1-c1ccc2oc(N3CCOC[C@@H]3C)nc2n1 [Compound 373] | 100 to 500 nM |
| CC(=O)N1CCC[C@@H](Nc2nc3nc(-c4c(C)cc(C(F)(F)F)cc4O)ncc3[nH]2)C1 [Compound 461] | 100 to 500 nM |

| Compound | IC50 |
| --- | --- |
| CCN1CC2(CCN(c3nc4nc(-c5c(C)cc(C(F)(F)F)cc5O)ccc4o3)CC2)C1 [Compound 358] | 100 to 500 nM |
| CC(=O)N1CCOC[C@H]1CNc1nc2nc(-c3c(C)cc(C(F)(F)F)cc3O)ccn2n1 [Compound 453] | 500 to 1000 nM |
| Cc1cc(C(F)(F)F)cc(O)c1-c1ccc2oc(N3CC4CC(C3)O4)nc2n1 [Compound 378] | 100 to 500 nM |
| CCN1CCC2(CC1)CCN(c1nc3nc(-c4c(C)cc(C(F)(F)F)cc4O)ccc3o1)CC2 [Compound 367] | 100 to 500 nM |
| CCN1CCC[C@@H](Nc2nc3ccc(-c4c(C)cc(F)cc4O)nn3n2)C1 [Compound 449] | ≤ 100 nM |
| Cc1cc(C(F)(F)F)cc(O)c1-c1ccc2oc(N3CC4CC(C3)N4S(C)(=O)=O)nc2n1 [Compound 395] | ≤ 100 nM |
| Cc1cc(C(F)(F)F)c(Cl)c(O)c1-c1ccn2nc(N3CCOCC3)nc2n1 [Compound 459] | > 1000 nM |
| CC(=O)N1CCN(c2nc3nc(-c4c(C)cc(C(F)(F)F)cc4O)ccc3o2)CC1 [Compound 389] | ≤ 100 nM |
| [2H]C([2H])([2H])C(=O)N1CCOC[C@H]1CNc1nc2nc(-c3c(C)cc(C(F)(F)F)cc3O)ccc2o1 [Compound 450] | ≤ 100 nM |
| Cc1cc(C(F)(F)F)cc(O)c1-c1ccc2oc(N[C@@H]3CCCN(CC#N)C3)nc2n1 [Compound 402] | ≤ 100 nM |
| CC(=O)N1CCC2(CC1)CN(c1nc3nc(-c4c(C)cc(C(F)(F)F)cc4O)ccc3o1)CCO2 [Compound 365] | 100 to 500 nM |
| CCN1C[C@H](Nc2nc3nc(-c4c(C)cc(C(F)(F)F)cc4O)ccc3o2)CC(F)(F)C1 [Compound 398] | ≤ 100 nM |
| Cc1cc(C(F)(F)F)cc(O)c1-c1ccc2oc(N[C@@H]3COCC[C@H]3O)nc2n1 [Compound 81] | 100 to 500 nM |
| Cc1cc(C(F)(F)F)cc(O)c1-c1ccn2nc(N[C@@H]3CCCN(CCO)C3)nc2n1 [Compound 455] | ≤ 100 nM |
| Cc1cc(C(F)(F)F)cc(O)c1-c1ccc2[nH]c(CC(=O)O)nc2n1 [Compound 4] | 500 to 1000 nM |
| Cc1cc(C(F)(F)F)cc(O)c1-c1ccc2nc(NC[C@@H]3COCCN3S(C)(=O)=O)nn2n1 [Compound 421] | 500 to 1000 nM |
| Cc1cc(C(F)(F)F)cc(O)c1-c1ccc2oc(N3CCC4(CCCCO4)CC3)nc2n1 [Compound 368] | ≤ 100 nM |
| Cc1cc(C(F)(F)F)cc(O)c1-c1cc2ccn(C3CCS(=O)(=O)CC3)c2nn1 [Compound 124] | 100 to 500 nM |
| Cc1cc(C(F)(F)F)cc(O)c1-c1ccc2oc(N3CCC4(CC3)COC4)nc2n1 [Compound 362] | ≤ 100 nM |
| CC(=O)N1CCC(Nc2nc3nc(-c4c(C)cc(C(F)(F)F)cc4O)ccc3o2)CC1 [Compound 412] | 100 to 500 nM |
| Cc1cc(C(F)(F)F)cc(O)c1-c1ccc2oc(NC3CC3)nc2n1 [Compound 82] | ≤ 100 nM |
| Cc1cc(C(F)(F)F)cc(O)c1-c1ccc2oc(N3CCC4(CCOC4)C3)nc2n1 (centres unmarked) [Compound 361] | 100 to 500 nM |
